Test results from patent US20230241000A1, “GSK3 INHIBITOR-LOADED NANO FORMULATIONS AS A CANCER IMMUNOTHERAPEUTIC” (The Regents of the University of California, priority 2020, published 2023).
“Also recorded” adds a separate entry of the source.

Legend:
[1] = test system: GSK3; conditions: values provided by chemical vendors (Cayman Chemical, Selleck Chemicals); cited from earlier work
[2] = Remote loading of GSK3 inhibitors into silicasomes: encapsulation efficiency and loading capacity; type: physicochemical
Description: The overall scheme for the synthesis of silicasome carriers to deliver GSK3 inhibitors is outlined in FIG. 3. Briefly, a large batch (i.e. 120 g) synthesis of bare particles was carried out as previously, yielding ˜70 nm MSNPs (FIG. 3, panel A) (22). […] 20 mg soaked-in MSNPs were then used together with an ethanol suspended lipid solution, comprised of a mixture of 60 mg DSPC:Cholesterol:PE-PEG2000 (molar ratio of 6:4:0.3), for coating with a lipid bilayer by a flow through sonication procedure (FIG. 3, panel B). Following the removal of the non-encapsulated trapping agent, AZD2858, AZD1080, LY2090314, and 1-Azakenpaullone were dissolved in 0.9% saline and incubated with the silicasome carrier to assess the loading capacity in response to different feed weight percentages (FIG. 11).
Four GSK3 inhibitor-laden silicasome formulations were analyzed to assess encapsulation efficiency and loading capacity. 100 μL of the silicasomes suspension at 10 mg/mL in 0.9% NaCl (1 mg silicasomes) was added to AZD1080, AZD2858, LY2090314, and 1-azakenpaullone solutions, which were prepared by adding 50, 100 or 200 μg of each inhibitor to 900 μL water. These drug mass quantities provided feed weight percentages of 5, 10, and 20%, in comparison to the silicasome mass. Following execution of the remote loading procedure as detailed above, the crude solutions were used to assess absorbance in a glass bottom 96-well plate (Total Drug Absorbance). Silicasomes were centrifuged at 21,000×g for 15 minutes to pellet the particles. After removal of the supernatant, the silicasomes were re-suspended in aa fresh 0.9% NaCl solution. This was repeated three times to remove any unloaded inhibitor. The silicasome solution was then sampled and absorbance was measured to determine Loaded Drug Absorbance. Concentration-matched unloaded ‘blank’ silicasomes also had absorbance measured (Silicasome Blank Absorbance). Encapsulation efficiency was calculated by the following formula: […]
All measurements were taken using a SpectraMax M5 plate reader (Molecular Devices). All solutions were diluted 1/10 in 0.9% NaCl solution prior to absorbance reads. The absorbances used for each compound were: 418 nm for AZD1080, 383 nm for AZD2858, 213 nm for LY2090314, and 334 nm for 1-azakenpaullone.

[3] = test system: Pdcd1 expression; assay: RT-qPCR of Pdcd1 in anti-CD3 activated primary murine T-cells; type: cell-based, C57BL/6 mouse; conditions: 10 μM, 72 hours, normalized against Gapdh
Description: (§1) This is compatible with the translational expression of T-bet, a transcription factor that interferes in PD-1 expression (FIG. 1, panel B).
(§2) Wells of a 96-well tissue culture plate were coated with anti-mouse CD3 antibody (Ultra-LEAF, Biolegend). 7.5 μL of 1 mg/mL antibody solution was diluted in 1 mL of 1×PBS, before 50 μL of the dilution was added to each plate well for 2 hours at 37° C. The wells were then thoroughly washed 3× with 1×PBS.
(§3) T-cells were extracted from C57BL/6 mouse spleens, using a standard procedure with minor modifications (71). Two mouse spleens were mechanically disrupted and the released cells were passed through a 70 μm filter. Red blood cells were lysed using RBC lysis buffer (eBioscience) at 4° C. for 5 minutes. 10 mL of 1×PBS was added to stop the lysis process, following which cells were pelleted at 300×g for 5 minutes. […]
(§4) Cells were collected and RNA was extracted using Direct-zol RNA MiniPrep Plus kits (Zymo), as per the manufacturer's instructions. Extracted RNA was converted into cDNA using SuperScript III First-Strand Synthesis System kits (Invitrogen). cDNA from treated T-cells was analyzed by RT-PCR using a LightCycler 480 instrument (Roche) and the LightCycler 480 SYBR Green I Master kit (Roche), per manufacturer's instructions. cDNA was analyzed using forward and reverse primers for Pdcd1, Tbx21, and Gapdh as a control, as described previously (10, 14). […]

[4] = test system: Tbx21 expression; assay: RT-qPCR of Tbx21 in anti-CD3 activated primary murine T-cells; type: cell-based, C57BL/6 mouse; conditions: 10 μM, 72 hours, normalized against Gapdh
Description: as §1, §2, §3, §4

N#Cc1ccc2[nH]c(O)c(-c3ccc(CN4CCOCC4)cn3)c2c1 [AZD1080]
IC50 [1]: 31 nM
Encapsulation Efficiency ([2]; AZD1080 remote loaded in silicasome, feed weight of 5%, ± SD, 3 samples): 62.5%
Loading Capacity ([2]; AZD1080 remote loaded in silicasome, ± SD, 3 samples): 8.1 w/w %
solubility during remote loading (in words) ([2]; dissolved in 0.9% saline, incubated with silicasome carrier, feed weight %): good aqueous solubility
encapsulation efficiency in silicasomes (in words) ([2]; remote loading at 5, 10 or 20 feed weight %): highest encapsulation efficiency; also recorded: moderate efficiency
reduction in Pdcd1 mRNA expression [3]: ~6 fold
Tbx21 mRNA expression [4]: increased
